Assay results reported in US20240358861A1, “COMPOSITIONS AND METHODS OF FLUORESCEIN SODIUM FOR EARLY DIAGNOSIS OF CERVICAL CANCER” (THE MOEIN FAMILY TRUST, priority 2023, published 2024).

Columns and labels:
cervix = experiment: Staining properties of FNa versus AA when tested; parameters: species or system human; conditions: in vivo
Excerpt: In some embodiments, FNa staining may be observed with an unaided eye. Using FNa as a staining agent enables use in low resource settings where access to a colposcope is not possible.

[1] = system: cervix (cervical lesions); experiment: Colposcopy with AA then FNa staining, histopathology (biopsy) as reference diagnosis; type: in vivo, human; conditions: for Accuracy: correlation of staining with biopsy report; for Sensitivity / Specificity: diagnosis of high grade SIL or worse per histopathology; for Number of patients, stain negative, Total / Number of patients, stain positive, Total: all biopsies
Experimental: The FNa formulation is applied in 3 steps, each using either a cotton swab or plastic pipette for delivery and continuing until all solution is dispensed: a) Pre-rinse with 10 mL of normal saline to remove cervical mucus. b) Apply 10 mL of a FNa delivery solution over the cervix. Solution in the posterior cul-de-sac is picked up with the pipette and resprayed, at least once, then discarded. c) after imaging or diagnosis, post-rinse with 10 mL of normal saline.

cervical lesions (CIN) = experiment: Lesion grade stained, shown by p16, Ki67 and c-myc FISH staining of specimens; parameters: species or system human

## O=C1OC2(c3ccc(O)cc3Oc3cc(O)ccc32)c2ccccc21 [FNa, Fluorescein (3′,6′-dihydrospiro[isobenzofuran-1(3H),9′-[9H]xanthene]-3-one) sodium]
cervix
  Burning sensation: did not cause the same burning sensation
[1]; No pap smear (n = 5), stain Negative, Benign biopsy n = 6
  Number of patients: 0
[1]; No pap smear (n = 5), stain Negative, High grade biopsy (n = 26)
  Number of patients: 0
[1]; No pap smear (n = 5), stain Negative, Invasive (n = 5)
  Number of patients: 0
[1]; No pap smear (n = 5), stain Negative, Low grade Biopsy (n = 41)
  Number of patients: 1
[1]; No pap smear (n = 5), stain Negative, all
  Number of patients: 1
[1]; No pap smear (n = 5), stain Positive, Benign biopsy n = 6
  Number of patients: 0
[1]; No pap smear (n = 5), stain Positive, High grade biopsy (n = 26)
  Number of patients: 1
[1]; No pap smear (n = 5), stain Positive, Invasive (n = 5)
  Number of patients: 0
[1]; No pap smear (n = 5), stain Positive, Low grade Biopsy (n = 41)
  Number of patients: 3
[1]; No pap smear (n = 5), stain Positive, all
  Number of patients: 4
[1]; Pap smear High grade (n = 22), stain Negative, Benign biopsy n = 6
  Number of patients: 2
[1]; Pap smear High grade (n = 22), stain Negative, High grade biopsy (n = 26)
  Number of patients: 0
[1]; Pap smear High grade (n = 22), stain Negative, Invasive (n = 5)
  Number of patients: 0
[1]; Pap smear High grade (n = 22), stain Negative, Low grade Biopsy (n = 41)
  Number of patients: 0
[1]; Pap smear High grade (n = 22), stain Negative, all
  Number of patients: 2
[1]; Pap smear High grade (n = 22), stain Positive, Benign biopsy n = 6
  Number of patients: 0
[1]; Pap smear High grade (n = 22), stain Positive, High grade biopsy (n = 26)
  Number of patients: 12
[1]; Pap smear High grade (n = 22), stain Positive, Invasive (n = 5)
  Number of patients: 3
[1]; Pap smear High grade (n = 22), stain Positive, Low grade Biopsy (n = 41)
  Number of patients: 5
[1]; Pap smear High grade (n = 22), stain Positive, all
  Number of patients: 20
[1]; Pap smear Invasive (n = 5), stain Negative, Benign biopsy n = 6
  Number of patients: 0
[1]; Pap smear Invasive (n = 5), stain Negative, High grade biopsy (n = 26)
  Number of patients: 0
[1]; Pap smear Invasive (n = 5), stain Negative, Invasive (n = 5)
  Number of patients: 0
[1]; Pap smear Invasive (n = 5), stain Negative, Low grade Biopsy (n = 41)
  Number of patients: 0
[1]; Pap smear Invasive (n = 5), stain Negative, all
  Number of patients: 0
[1]; Pap smear Invasive (n = 5), stain Positive, Benign biopsy n = 6
  Number of patients: 0
[1]; Pap smear Invasive (n = 5), stain Positive, High grade biopsy (n = 26)
  Number of patients: 4
[1]; Pap smear Invasive (n = 5), stain Positive, Invasive (n = 5)
  Number of patients: 1
[1]; Pap smear Invasive (n = 5), stain Positive, Low grade Biopsy (n = 41)
  Number of patients: 0
[1]; Pap smear Invasive (n = 5), stain Positive, all
  Number of patients: 5
[1]; Pap smear Low grade (n = 46), stain Negative, Benign biopsy n = 6
  Number of patients: 4
[1]; Pap smear Low grade (n = 46), stain Negative, High grade biopsy (n = 26)
  Number of patients: 0
[1]; Pap smear Low grade (n = 46), stain Negative, Invasive (n = 5)
  Number of patients: 0
[1]; Pap smear Low grade (n = 46), stain Negative, Low grade Biopsy (n = 41)
  Number of patients: 3
[1]; Pap smear Low grade (n = 46), stain Negative, all
  Number of patients: 7
[1]; Pap smear Low grade (n = 46), stain Positive, Benign biopsy n = 6
  Number of patients: 0
[1]; Pap smear Low grade (n = 46), stain Positive, High grade biopsy (n = 26)
  Number of patients: 9
[1]; Pap smear Low grade (n = 46), stain Positive, Invasive (n = 5)
  Number of patients: 1
[1]; Pap smear Low grade (n = 46), stain Positive, Low grade Biopsy (n = 41)
  Number of patients: 29
[1]; Pap smear Low grade (n = 46), stain Positive, all
  Number of patients: 39
[1]
  Accuracy: Accuracy = 94%
  Sensitivity: 94%
  Specificity: 86%
  Number of patients, stain negative, Total: 10
  Number of patients, stain negative, biopsy Ca, HG, LG: 4
  Number of patients, stain positive, Total: 68
  Number of patients, stain positive, biopsy Ca, HG, LG: 67

## CC(=O)O [AA, acetic acid]
cervix
  Burning sensation: burning sensation that AA causes
[1]; AA versus FNa, patients with low grade SIL per histopathology
  More false positives than the other stain: three
[1]; No pap smear (n = 5)
  Number of patients Acetic acid positive: 5
[1]; Pap smear High grade (n = 22)
  Number of patients Acetic acid positive: 20
[1]; Pap smear Invasive (n = 5)
  Number of patients Acetic acid positive: 5
[1]; Pap smear Low grade (n = 46)
  Number of patients Acetic acid positive: 44
[1]
  Accuracy: Accuracy = 94%
  Sensitivity: 94%
  Specificity: 43%
  Number of patients, stain negative, Total: 4
  Number of patients, stain negative, biopsy Ca, HG, LG: 1
  Number of patients, stain positive, Total: 74
  Number of patients, stain positive, biopsy Ca, HG, LG: 70
[1]; in vivo
  Missed high grade lesions: Neither AA nor FNa missed any high grade lesions
Cervical lesions (CIN)
  Lesion grades stained: stains any lesion from CIN 1 and worse
